Where a name gives a salt, the structure may show the parent alone.
Tests used:
human alpha2A receptors = target: T1, human alpha2A receptors (Homo sapiens, UniProt P08913); assay: Determination of alpha2A antagonistic activity in vitro (FLIPR calcium assay, CHO cells); assay type: cell-based; settings: for Kb: Kb calculated with the Cheng-Prusoff equation from IC50, adrenaline as agonist, CHO cells, human alpha2A, read-out: Alpha 2A Adrenaline Kb; for IC50: antagonism of adrenaline stimulation, CHO cells stably transfected with human alpha2A receptor and Gα16, intracellular calcium (FLIPR), read-out: Alpha 2A Adrenaline IC50
T1 construct: host or cells: CHO cells, cotransfected with pCEP-Gα16
T1 sequence (P08913 1-465): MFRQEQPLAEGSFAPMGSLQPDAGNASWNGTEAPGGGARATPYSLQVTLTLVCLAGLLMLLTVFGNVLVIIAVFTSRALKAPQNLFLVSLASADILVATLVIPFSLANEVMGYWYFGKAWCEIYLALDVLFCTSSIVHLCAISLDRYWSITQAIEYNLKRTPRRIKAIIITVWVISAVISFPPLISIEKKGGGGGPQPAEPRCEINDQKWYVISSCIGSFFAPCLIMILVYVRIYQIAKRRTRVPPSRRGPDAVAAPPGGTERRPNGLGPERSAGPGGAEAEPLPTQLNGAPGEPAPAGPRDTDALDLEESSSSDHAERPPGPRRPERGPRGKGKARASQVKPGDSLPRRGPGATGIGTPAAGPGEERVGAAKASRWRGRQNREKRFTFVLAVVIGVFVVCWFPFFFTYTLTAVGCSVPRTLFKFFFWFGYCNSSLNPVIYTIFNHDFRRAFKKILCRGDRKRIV
Description: (§1) EXPERIMENT 1: Determination of alpha2A and alpha2C Antagonistic Activity In Vitro
(§2) Chinese hamster ovary (CHO) cells stably transfected with human alpha2A or alpha2C receptors (University of Turku, Finland) were cotransfected with the expression vector pCEP-Gα16 (Molecular Devices, CA, USA) were used in this experiment. The cells were maintained at 37° C. in a 5% CO2/95% air atmosphere. The cells were cultured in HAM F-12 medium supplemented with 10% FCS, 25 mM HEPES, 100 IU/ml penicillin, 100 µg/ml streptomycin, 500 μg/ml geneticin and 240 μg/ml hygromycin B. The cells were subcultured twice weekly with 0.25% trypsin and 1 mM EDTA. The subculture ratio was 1:5-1:20. The growth medium was changed every 2 or 3 days. All cell culture reagents were from Gibco. The day before the experiment the cells were plated into black-walled, clear bottom 384-well plates at a density of 10,000 cells/well.
(§3) The growth medium was removed and the cells were incubated with the test compounds and the FLIPR Calcium 6 Assay reagent (Molecular Devices, CA, USA) for 2 h at 37° C. in dark. The test compounds (concentrations in cells 100 pM-10 μM) were dissolved in Probenecid-Ringer consisting of 150 mM NaCl, 3 mM KCl, 1.2 mM MgCl2, 1 mM CaCl2, 5 mM glucose, 20 mM HEPES and 2.5 mM probenecid (pH 7.4 adjusted with 1.0 M NaOH). The osmolarity was adjusted to 322 milliosmoles with Osmostat® OM-6020 osmometer (DIC Kyoto Daiichi Kagagu Co. Ltd, Japan). […] All experiments were performed at 37° C. For agonism measurements the test compounds dissolved in Probenecid-Ringer were applied by FLIPR Tetra at 15 s time point. In order to determine antagonism, the cells were stimulated either with 100 nM adrenaline or noradrenaline and the test compounds were added to the cells 2 h before the experiment with the FLIPR Calcium 6 Assay reagent. […] Typically, there were four replicates at each concentration and six different dose levels. For example, if the number of plates from which results were obtained was three, 72 (4*6*3) wells were thus measured to construct dose-response relationship. The samples were excited at 485 nm and emission was detected at 525 nm with a 515 nm cut-off filter. The minimum fluorescence value subtracted from the maximum value for each well was used in the calculations. ScreenWorks version 4.0 software was used for analyzing the results. Fitting of the antagonist dose-response results was performed with the free Hill equation and the IC50 values were fitted with IDBS XE software using model 200: y=(A+(B/(1+((x/C)^D)))), where A is the curve maximum, B the curve minimum and C equals the EC50 value. D is slope factor (Hill). Kb was calculated with the Cheng-Prusoff equation Kb=A/((B/C)+1), where A is the IC50 of antagonist, B the concentration of agonist and C the EC50 of the agonist.

human alpha2C receptors = target: T2, human alpha2C receptors (Homo sapiens, UniProt P18825); assay: Determination of alpha2C antagonistic activity in vitro (FLIPR calcium assay, CHO cells); assay type: cell-based; settings: for Kb: Kb calculated with the Cheng-Prusoff equation from IC50, adrenaline as agonist, CHO cells, human alpha2C, read-out: Alpha 2C Adrenaline Kb; for IC50: antagonism of adrenaline stimulation, CHO cells stably transfected with human alpha2C receptor and Gα16, intracellular calcium (FLIPR), read-out: Alpha 2C Adrenaline IC50
T2 construct: host or cells: CHO cells, cotransfected with pCEP-Gα16
T2 sequence (P18825 1-462): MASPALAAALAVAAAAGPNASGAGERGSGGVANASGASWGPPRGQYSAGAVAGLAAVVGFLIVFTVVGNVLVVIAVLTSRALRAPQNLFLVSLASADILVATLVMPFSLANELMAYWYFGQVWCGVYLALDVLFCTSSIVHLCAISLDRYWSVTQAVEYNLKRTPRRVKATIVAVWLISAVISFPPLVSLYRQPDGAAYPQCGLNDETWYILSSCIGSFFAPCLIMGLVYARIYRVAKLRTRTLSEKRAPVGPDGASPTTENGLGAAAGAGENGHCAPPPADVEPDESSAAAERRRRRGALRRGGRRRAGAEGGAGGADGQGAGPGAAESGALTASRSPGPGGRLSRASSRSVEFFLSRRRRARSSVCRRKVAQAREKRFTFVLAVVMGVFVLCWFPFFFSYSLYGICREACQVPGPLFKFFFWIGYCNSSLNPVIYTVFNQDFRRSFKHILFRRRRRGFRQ
Description: as §1, §2, §3

Row | Kb (human alpha2A receptors) [nM] | IC50 (human alpha2A receptors) [nM] | Kb (human alpha2C receptors) [nM] | IC50 (human alpha2C receptors) [nM] | Compound
1 | > 449 | > 10000 | 0.38 | 0.04 | CC1CCN(c2nsnc2N2CCN(C[C@H]3COc4ccccc4O3)CC2)C1=O (stereo partly drawn) [Compound of example 21, 1-(4-(4-(((S)-2,3-Dihydrobenzo[b][1,4]dioxin-2-yl)methyl)piperazin-1-yl)-1,2,5-thiadiazol-3-yl)-3-methylpyrrolidin-2-one]
2 | > 449 | > 10000 | 1070 | 108 | CN1CCN(c2nsnc2N2CCN(C[C@H]3COc4ccccc4O3)CC2)C1=O [Compound of example 28, (S)-1-(4-(4-((2,3-Dihydrobenzo[b][1,4]dioxin-2-yl)methyl)piperazin-1-yl)-1,2,5-thiadiazol-3-yl)-3-methylimidazolidin-2-one]
3 | > 449 | > 10000 | 0.527 | 0.054 | O=C1NCCN1c1nsnc1N1CCN(C[C@H]2COc3ccccc3O2)CC1 [Compound of example 30, (S)-1-(4-(4-((2,3-Dihydrobenzo[b][1,4]dioxin-2-yl)methyl)piperazin-1-yl)-1,2,5-thiadiazol-3-yl)imidazolidin-2-one]
4 | > 449 | > 10000 | 183 | 18.5 | O=C1OCCN1c1nsnc1N1CCN(C[C@H]2COc3ccccc3O2)CC1 [Compound of example 26, (S)-3-(4-(4-((2,3-Dihydrobenzo[b][1,4]dioxin-2-yl)methyl)piperazin-1-yl)-1,2,5-thiadiazol-3-yl)oxazolidin-2-one]
5 | > 449 | > 10000 | < 0.1 | < 0.01 | CC1(C)CCN(c2nsnc2N2CCN(C[C@H]3COc4ccccc4O3)CC2)C1=O [Compound of example 17, (S)-1-(4-(4-((2,3-Dihydrobenzo[b][1,4]dioxin-2-yl)methyl)piperazin-1-yl)-1,2,5-thiadiazol-3-yl)-3,3-dimethylpyrrolidin-2-one]

More lines, now with the values behind:

Row | Compound | Kb (human alpha2A receptors) [nM] | IC50 (human alpha2A receptors) [nM] | Kb (human alpha2C receptors) [nM] | IC50 (human alpha2C receptors) [nM]
6 | c1ccc2c(c1)OC[C@H](CN1CCN(c3nsc4cccnc34)CC1)O2 [Compound of example 36, (S)-3-(4-((2,3-Dihydrobenzo[b][1,4]dioxin-2-yl)methyl)piperazin-1-yl)isothiazolo[4,5-b]pyridine hydrochloride] | 298 | 6650 | 135 | 13.6
7 | CCOC(=O)c1c(N2CCN(C[C@H]3COc4ccccc4O3)CC2)nn(C)c1C [Compound of example 12, (S)-Ethyl 3-(4-((2,3-dihydrobenzo[b][1,4]dioxin-2-yl)methyl)piperazin-1-yl)-1,5-dimethyl-1H-pyrazole-4-carboxylate] | 120 | 2680 | 2.13 | 0.21
8 | CC(=O)Nc1nsnc1N1CCN(C[C@H]2COc3ccccc3O2)CC1 [Compound of example 16, (S)—N-(4-(4-((2,3-Dihydrobenzo[b][1,4]dioxin-2-yl)methyl)piperazin-1-yl)-1,2,5-thiadiazol-3-yl)acetamide] | > 449 | > 10000 | 4210 | 424
9 | COCc1c(N2CCN(C[C@H]3COc4ccccc4O3)CC2)nn(C)c1C [Compound of example 11, (S)-1-((2,3-Dihydrobenzo[b][1,4]dioxin-2-yl)methyl)-4-(4-(methoxymethyl)-1,5-dimethyl-1H-pyrazol-3-yl)piperazine] | 306 | 6810 | 1.62 | 0.165
10 | c1cnc(Nc2nsnc2N2CCN(C[C@H]3COc4ccccc4O3)CC2)nc1 [Compound of example 18, (S)-4-(4-((2,3-Dihydrobenzo[b][1,4]dioxin-2-yl)methyl)piperazin-1-yl)-N-(pyrimidin-2-yl)-1,2,5-thiadiazol-3-amine] | 233 | 5190 | 30.1 | 3.03
11 | Cc1c(N2CCOC2=O)c(N2CCN(C[C@H]3COc4ccccc4O3)CC2)nn1C [Compound of example 5, (S)-3-(3-(4-((2,3-Dihydrobenzo[b][1,4]dioxin-2-yl)methyl)piperazin-1-yl)-1,5-dimethyl-1H-pyrazol-4-yl)oxazolidin-2-one] | 206 | 4590 | 1 | 0.1
12 | c1ccc2c(c1)OC[C@H](CN1CCN(c3nncs3)CC1)O2 [Compound of example 22, (S)-2-(4-((2,3-Dihydrobenzo[b][1,4]dioxin-2-yl)methyl)piperazin-1-yl)-1,3,4-thiadiazole] | > 449 | > 10000 | 1570 | 158
13 | O=C1NCCN1c1nnc(N2CCN(C[C@H]3COc4ccccc4O3)CC2)s1 [Compound of example 25, (S)-1-(5-(4-((2,3-Dihydrobenzo[b][1,4]dioxin-2-yl)methyl)piperazin-1-yl)-1,3,4-thiadiazol-2-yl)imidazolidin-2-one] | 514 | 11500 | 28.4 | 2.86
14 | c1ccc2c(c1)OC[C@H](CN1CCN(c3nsnc3Nc3ccncn3)CC1)O2 [Compound of example 19, (S)-4-(4-((2,3-Dihydrobenzo[b][1,4]dioxin-2-yl)methyl)piperazin-1-yl)-N-(pyrimidin-4-yl)-1,2,5-thiadiazol-3-amine] | 459 | 10200 | < 0.1 | < 0.01
15 | Cc1c(N2CCNC2=O)c(N2CCN(C[C@H]3COc4ccccc4O3)CC2)nn1C [Compound of example 9, (S)-1-(3-(4-((2,3-Dihydrobenzo[b][1,4]dioxin-2-yl)methyl)piperazin-1-yl)-1,5-dimethyl-1H-pyrazol-4-yl)imidazolidin-2-one] | > 449 | > 10000 | 0.55 | 0.06
16 | Cc1nsc(N2CCN(C[C@H]3COc4ccccc4O3)CC2)c1N1CCCC1=O [Compound of example 31, (S)-1-(5-(4-((2,3-Dihydrobenzo[b][1,4]dioxin-2-yl)methyl)piperazin-1-yl)-3-methylisothiazol-4-yl)pyrrolidin-2-one] | > 449 | > 10000 | 1.66 | 0.17
17 | CN(C)C(=O)c1nsnc1N1CCN(C[C@H]2COc3ccccc3O2)CC1 [Compound of example 34, (S)-4-(4-((2,3-Dihydrobenzo[b][1,4]dioxin-2-yl)methyl)piperazin-1-yl)-N,N-dimethyl-1,2,5-thiadiazole-3-carboxamide] | > 449 | > 10000 | 0.92 | 0.09
